Patent US10265303B2, “Hyperphenylalaninemia and treatments thereof” (BERGEN TEKNOLOGIOVERFØRING AS, priority 2015, dated 2019)

How the values were obtained:
[1] = molecular target: truncated dimeric hPAH ΔN102/ΔC24 (Homo sapiens, UniProt P00439); conditions: 137.8 μM compound, 2% DMSO, 1 mM L-Phe
Protocol: (§1) Tetrameric full length wild-type (WT) human PAH (hPAH) and truncated ΔN102/ΔC24-hPAH corresponding to a dimeric form containing the catalytic domain of known crystal structure were recombinantly expressed in E. coli fused to maltose-binding protein and purified by amylose-affinity chromatography and further cleaved and isolated to homogeneity essentially as described [Martinez, A., et al., Biochem. J., 1995. 306: p. 589-597]. Protein concentration was measured in a NanoDrop spectrophotometer (Thermo Scientific) using the absorbance at 280 nm and the theoretical molar extinction coefficient of 49780 M^−1 cm^−1 for WT-PAH and 46675 M^−1 cm^−1 for ΔN102/ΔC24-hPAH.
(§2) PAH activity on isolated recombinant enzymes was measured at 37° C. for 1 min with quantification of L-Tyr formed by HPLC with fluorimetric detection, essentially as described [Martinez et al. supra] with the indicated concentrations of the compounds. […] After an equilibration of the plate at 37° C. for 3 min the reaction was initiated by adding 75 μM BH4 (Schircks Laboratories, Jona, Switzerland) in 5 mM DTT and stopped after 1 min by adding 50 μl of 2% (v/v) acetic acid in ethanol (all concentrations referred to a final reaction volume of 50 μl) prior to determination of L-Tyr produced by HPLC with fluorimetric detection (γexcitation=274 nm; γemission=304 nm). Controls with 2% DMSO without compound were routinely assayed as references for data processing. A BRAVO automated liquid handling platform was used in these assays.
(§3) The steady-state kinetic parameters were estimated with 0.25 μg hPAH (0.965 μM subunit), 1 mM L-Phe and different BH4 concentrations in the range 0-400 μM, and with 100 μM BH4 and L-Phe (0-1 mM). The saturation curves were fitted to hyperbolic (for BH4) or sigmoidal (for L-Phe) kinetic models with SigmaPlot v. 9.0. (SPSS). Kinetic parameters are presented as mean±SEM obtained from nonlinear regression analysis.

[2] = molecular target: full-length tetrameric wild-type hPAH (Homo sapiens, UniProt P00439); conditions: 137.8 μM compound, 2% DMSO
Protocol: as §1, §2, §3

human wild-type PAH = molecular target: T1, human wild-type PAH (Homo sapiens, UniProt P00439); experiment: PAH activity in lysates of HEK293 cells permanently expressing human wild-type PAH; assay type: cell-based
T1 construct: expressed in transfected cells
T1 sequence (P00439 1-452): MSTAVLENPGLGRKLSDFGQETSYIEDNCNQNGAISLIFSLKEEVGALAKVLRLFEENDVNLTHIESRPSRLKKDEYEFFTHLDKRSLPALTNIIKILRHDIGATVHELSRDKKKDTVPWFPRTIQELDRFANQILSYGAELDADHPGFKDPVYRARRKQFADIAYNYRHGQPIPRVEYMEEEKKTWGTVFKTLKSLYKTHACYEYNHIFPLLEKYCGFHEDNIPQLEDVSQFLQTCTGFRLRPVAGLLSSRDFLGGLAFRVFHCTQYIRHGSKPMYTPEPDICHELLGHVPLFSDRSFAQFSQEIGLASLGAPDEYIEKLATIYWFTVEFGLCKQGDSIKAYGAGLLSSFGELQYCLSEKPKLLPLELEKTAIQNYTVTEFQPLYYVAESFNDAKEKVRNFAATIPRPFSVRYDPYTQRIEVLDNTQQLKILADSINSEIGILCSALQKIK
Protocol: (§4) Human embryonic kidney cells (HEK293; Life Technologies™) permanently expressing WT-hPAH, prepared with the Flp-In system (Life Technologies™) were kindly provided by Per Knappskog, Haukeland University Hospital. About 1 million cells were grown in DMEM medium containing 4.5 g/l glucose, 10% (v/v) fetal calf serum, 0.25 mg/ml gentamycine, 2 mM L-glutamine and 50 μg/ml hygromycin B, and after 24 h medium was changed and the test compounds were added at a concentration of 0.02 mg/ml (1% DMSO). Eight hours later, the cells were harvested, and the pellets frozen in dry ice and stored at −80° C. […] To prepare the cell extracts, the frozen cell pellets were thawed in TBS (+protease inhibitor) buffer and cells were homogenized with 0.1% TX-100, incubated 15 minutes at 4° C. and extracts were clarified by centrifugation 20000 g for 15 min at 4° C. Protein concentrations were normalized using a Direct Detect Spectrometer (Merck Millipore).
The 7 selected compounds as well as the first generation pharmacological chaperones (Compounds III and IV) were further analyzed in the presence and absence of BH2 (200 μM), added as precursor of BH4, to account for additive effects. […]
as §4, with “and the compounds were” for “and the test compounds were”, “concentration of 0.04 mg/ml (1%” for “concentration of 0.02 mg/ml (1%”, “for 15 minutes at 4°” for “for 15 min at 4°”

## COc1cc(Cc2cnc(N)nc2N)cc(OC)c1OC [c53, trimethoprim]
[1]
  effect on Vmax and Km for BH4: did not change the Vmax or Km-values for BH4
[2]; 100 μM BH4
  effect on kinetic parameters for L-Phe (Vmax and S0.5): does not affect the kinetic parameters for the substrate
[2]; 1 mM L-Phe
  effect on Vmax and Km for BH4: decreased Vmax and Km for the cofactor
  mode of inhibition towards BH4: uncompetitive inhibition
Human wild-type PAH; 0.04 mg/ml (average 116.7 μM), 1% DMSO, 8 h
  effect on PAH activity (FIG. 1A): very large stimulating effect
Human wild-type PAH; 0.04 mg/ml compound, 1% DMSO, 8 h, Table 3
  PAH activity-cells (%): 148 ± 16%
Human wild-type PAH; average compound concentration 144.9 μM, 1% DMSO, 8 h
  increase of hPAH activity with respect to the control (FIG. 6): around 40%
Human wild-type PAH; compound average 116.7 μM plus BH2 200 μM
  effect on PAH activity together with BH2 (FIG. 1B): additive
